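Five compound concentrations were applied to cells in 96-well plates for 48 hours; endpoints were derived by simple linear interpolation of the resulting dose-response curve. At the GI50, growth is halved.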 The source made the active and inactive calls. Rule as the data show it: active = GI50 up to about 1.1 µM and inactive = higher.
Experiments:
Assay in all cases: DTP human tumour cell line panel, 48 h
[1] = tested on: SK-MEL-28
[2] = tested on: M14
[3] = tested on: HOP-92
[4] = tested on: 786-0
[5] = tested on: RPMI-8226
[6] = tested on: OVCAR-3
[7] = tested on: HOP-62
[8] = tested on: OVCAR-4
[9] = tested on: NCI-H226
[10] = tested on: SNB-75
[11] = tested on: OVCAR-5
[12] = tested on: SK-MEL-2
[13] = tested on: OVCAR-8
[14] = tested on: ACHN
[15] = tested on: K562
[16] = tested on: A549

Measured: GI50

CN(C)CCCNc1ccc2ncn3c4ccccc4c(=O)c1c23
inactive: [1] 31.6 µM | [2] 9.66 µM | [3] 5.9 µM | [4] 4.52 µM | [5] 4.71 µM | [6] 16 µM | [7] 33.6 µM | [8] 21.9 µM | [9] 7.21 µM | [10] 10.5 µM | [11] 10.7 µM | [12] 13.6 µM | [13] 4.9 µM | [14] 4.81 µM | [15] 3.77 µM

CC1=C(O)/C(=C/C(C)CCC/C(C)=C/C=C/C(C)CCCc2ccoc2)OC1=O (configuration not stated)
inactive: [1] 25 µM | [2] 36 µM | [16] 27.2 µM | [4] 25.5 µM | [7] 18.5 µM | [8] 29.4 µM | [9] 23.2 µM | [10] 25.2 µM | [11] 23.8 µM | [12] 25.5 µM | [13] 34.4 µM | [14] 19.2 µM

CC(C)(C)/N=C\N1CCC(C(c2ccccc2)c2ccccc2)CC1
inactive: [1] 43.4 µM | [3] 31.7 µM | [16] 98.4 µM | [4] > 100 µM | [5] 45.2 µM | [6] 80.5 µM | [7] > 100 µM | [8] 46.8 µM | [10] 21.9 µM | [11] 54.2 µM | [12] > 100 µM | [13] > 100 µM | [14] 82.4 µM | [15] 35.1 µM

CC1c2[nH]c3ccccc3c2CCN1O (configuration not stated)
inactive: [1] > 100 µM | [2] > 100 µM | [3] > 100 µM | [16] > 100 µM | [4] > 100 µM | [5] > 100 µM | [6] > 100 µM | [8] > 100 µM | [9] 23.1 µM | [10] 68.5 µM | [11] > 100 µM | [12] > 100 µM | [13] > 100 µM | [14] > 100 µM | [15] > 100 µM

CN(C)c1n/c(=N/c2ccc3c(c2)OCO3)ss1
inactive: [1] > 100 µM | [2] > 100 µM | [3] 56.5 µM | [16] 44.6 µM | [4] 70.6 µM | [5] 19.3 µM | [7] > 100 µM | [8] > 100 µM | [9] > 100 µM | [10] 9.71 µM | [11] > 100 µM | [12] > 100 µM | [13] 72.1 µM | [14] 84.9 µM | [15] 34.8 µM

CSc1nc(NC2OCC(OC(C)=O)C(OC(C)=O)C2OC(C)=O)c2c(n1)OCC2=O (configuration not stated)
inactive: [1] > 100 µM | [2] > 100 µM | [16] > 100 µM | [4] > 100 µM | [5] > 100 µM | [6] > 100 µM | [7] > 100 µM | [9] > 100 µM | [10] > 100 µM | [11] > 100 µM | [12] > 100 µM | [13] > 100 µM | [14] > 100 µM | [15] > 100 µM

CC1(C)CC2(S(=O)(=O)c3ccccc3)ON1CC2S(=O)(=O)c1ccccc1 (configuration not stated)
inactive: [1] 86.1 µM | [2] > 100 µM | [16] > 100 µM | [4] > 100 µM | [5] 35.7 µM | [6] > 100 µM | [7] > 100 µM | [8] 54.6 µM | [9] > 100 µM | [10] > 100 µM | [11] > 100 µM | [12] > 100 µM | [13] 74.1 µM | [14] > 100 µM | [15] 47.1 µM

CCCCCCCCCCCCCCC(C)CCC(=O)O (configuration not stated)
inactive: [1] > 100 µM | [3] 62.5 µM | [16] > 100 µM | [4] 80.9 µM | [6] 68.7 µM | [7] > 100 µM | [8] > 100 µM | [9] > 100 µM | [10] > 100 µM | [11] > 100 µM | [12] 60 µM | [13] > 100 µM | [14] > 100 µM

COC(=O)C1Cc2c(n(C)c3ccccc23)C(c2ccccc2)N1 (configuration not stated)
inactive: [1] > 100 µM | [2] > 100 µM | [3] > 100 µM | [16] > 100 µM | [4] 80 µM | [5] 63.7 µM | [6] 53 µM | [8] 50.5 µM | [9] 22.6 µM | [10] > 100 µM | [11] > 100 µM | [12] 47.6 µM | [13] > 100 µM | [14] 39.3 µM | [15] 47.6 µM

O=C(/C=C/c1ccc(Cl)c(Cl)c1)C1CCC(Cl)CC1 (configuration not stated)
inactive: [1] 17.5 µM | [2] 18.5 µM | [3] 36.7 µM | [16] 20 µM | [4] 16.8 µM | [5] 4.69 µM | [6] 15 µM | [7] 57.3 µM | [8] 17 µM | [9] 31.2 µM | [10] 19.8 µM | [11] 17.4 µM | [13] 18.8 µM | [14] 17.1 µM
